Laboratory results taken from patent US20090285899A1, “COMBINATION OF DEHYDROEPIANDROSTERONE OR DEHYDROEPIANDROSTERONE-SULFATE WITH A METHYLXANTHINE DERIVATIVE FOR TREATMENT OF ASTHMA OR CHRONIC OBSTRUCTIVE PULMONARY DISEASE” (priority 2003, published 2009).
Where “and” joins values, the source holds several entries; their conditions need not be identical. Equal values may be shown once. Read-outs that look alike come from different tables or passages of the source.

What was measured:
Intracellular adenosine = type: in vivo, rat
Protocol: Folinic acid (50 mg/kg) was administered intraperitoneally once daily for fourteen days. […] Hearts were removed from animals and flash frozen in liquid nitrogen with 10 s of death. Liver and lungs were removed en bloc and flash frozen with […]. Brain tissue was subsequently dissected.

[1] = Particle size of jet-milled / spray-dried DHEA-S (Malvern Mastersizer X, light microscope); type: physicochemical; settings: double pass through the jet mill
Protocol: Approximately 1 g sample was passed through the jet mill, once, and approximately 2 g sample were passed through the jet mill twice. […] The resulting solution was sonicated for 3 minutes and appeared fully dispersed. The dispersed solutions were tested on a Malvern Mastersizer X with a small volume sampler (SVS) attachment. One sample of dispersed material was tested 5 times. The median particle size or D (v, 0.5) of unmilled material was 52.56 μm and the % RSD (relative standard deviation) was 7.61 for the 5 values. The D (v, 0.5) for a single pass through the jet mill was 3.90 μm and the % RSD was 1.27, and the D (v, 0.5) from a double pass through the jet mill […] and the % RSD was 3.10.
The solution was spray-dried with a B-191 Mini Spray-Drier (Buchi, Flawil, Switzerland) with an inlet temperature of 55° C., outlet temperature of 40° C., at 100% aspirator, at 10% pump, nitrogen flow at 40 mbar and spray flow at 600 units. The spray-dried product was suspended in hexane and Span85 surfactant added to reduce agglomeration. The dispersions were sonicated with cooling for 3-5 minutes for complete dispersion and the dispersed solutions tested on a Malvern Mastersizer X with a Small Volume Sampler (SVS) attachment. […] Visual examination by light microscope of the dispersions of each batch confirmed that spray drying produced small respirable size particles. […]

HT-29 SF cells [2] = assay: Reversal of DHEA-mediated growth inhibition; type: cell-based, human; settings: 25 μM DHEA, 48 hours of treatment
HT-29 SF cells [3] = assay: Reversal of DHEA effect on cell cycle; type: cell-based, human; settings: 25 FM DHEA
Solubility of DHEA-S = type: physicochemical
From the text: Inhalation of pure water can produce a cough stimulus. […] The temperature effect is weaker at high NaCl concentrations.

HT-29 SF cells [4] = assay: DHEA effect on cell cycle (flow cytometry); type: cell-based, human; settings: 25-200 μM, 24-72 hours
Protocol: Cells were plated at 10^5/60-mm dish in duplicate. […] Cultures were trypsinized following 0, 24, 48, or 74 hours and fixed and stained using a modification of a procedure of Bauer et al., Cancer Res. 46, 3173-3178 (1986). Briefly, cells were collected by centrifugation and resuspended in cold phosphate-buffered saline. Cells were fixed in 70% ethanol, washed, and resuspended in phosphate-buffered saline.
After 24, 48, and 72 hours, cells were harvested, fixed in ethanol, and stained with propidium iodide, and the DNA content/cell was determined by flow cytometric analysis. The percentage of cells in G1, S, and G2M phases was calculated using the Cellfit cell cycle analysis program. S phase is marked by a quadrangle for clarity. Representative histograms from duplicate determinations are shown. The experiment was repeated three times.

HT-29 SF cells [5] = assay: DHEA effect on cell growth; settings: 12.5-200 μM, 24-72 hours
Protocol: Cell cultures, HT-29 SF cells, which represent a subline of HY-29 cells (ATCC, Rockville, Md.) and are adapted for growth in completely defined serum-free PC-1 medium (Ventrex, Portland, Me.), were obtained. Stock cultures were maintained in this medium at 37° C. (in a humidified atmosphere containing 5% CO2).

[6] = Physicochemical testing of DHEA-S dihydrate before and after micronization; settings: for Water: Karl Fischer
Protocol: Surface area is determined using five point BET analyses are performed with nitrogen as the adsorbing gas (P/Po=0.05 to 0.30) using a Micromeritics TriStar surface area analyzer. Particle size distributions are measured by laser diffraction using a Micromeritics Saturn Digisizer where the particles are suspended in mineral oil with sodium dioctyl sodium sulfosuccinate as a dispersing agent. Drug substance water content is measured by Karl Fischer titration (Schott Titroline KF). Pure water is used as the standard and all relative standard deviations for triplicates are less than 1%. Powder is added directly to the titration media.

[7] = Short-term solution stability of DHEA-S nebulizer formulation; type: physicochemical; settings: 10 mg/mL in 0.12% NaCl, RT (24-26° C.)
Protocol: Aliquots of this solution are filled into clear glass vials and stored at RT (24-26° C.) and at 40° C. The samples are checked daily for DHEA-S content, DHEA content, and appearance. For each time point, duplicate samples are withdrawn and diluted from each vial. […] The study is stopped on day three. […] The solution should easily be stable for the day of reconstitution in a clinical trial. The following section describes the aerosol properties of this formulation.

Human ASM cells = assay: [3H]-thymidine incorporation (DNA synthesis) in human airway smooth muscle cells; type: cell-based; settings: alone or in combinations
From the text: Human ASM cells were obtained from the distal trachea of transplant donors in compliance with the University of Pennsylvania's Institutional Review Board. Distal trachealis was dissected free of connective tissue and enzymatically digested to yield approximately 1×10^4 human ASM cells. […] The cells were scraped and placed on filters which were then counted using a beta counter. All experiments were repeated in a minimum of three human ASM cell lines. All conditions per experiment were run with six replicates.
There are three classes of commonly used anti-asthma medications that alter cAMP concentrations and/or adenosine concentrations. These classes of drugs are: methylxanthines, beta-agonists and phosphodiesterase inhibitors. For each of these drug classes, isobutylmethylxanthine (IBMX) was used as the tool compound to inhibit smooth muscle proliferation.

[8] = COPD patients, background; cited from earlier work

Nc1nc(=O)c2c([nH]1)NCC(CNc1ccc(C(=O)N[C@@H](CCC(=O)O)C(=O)O)cc1)N2C=O (mixture of isomers) [Folinic Acid, Folinic acid]
Effect of folinic acid alone on adenosine levels (Intracellular adenosine; administered alone): increase in adenosine levels for all organs studied | Effect of coadministered folinic acid on steroid-mediated adenosine depletion (Intracellular adenosine; coadministration with DHEA or methyltestosterone): completely abrogated steroid-mediated adenosine depletion

C[C@]12CC[C@H](OS(=O)(=O)[O-])CC1=CC[C@@H]1[C@@H]2CC[C@]2(C)C(=O)CC[C@@H]12.[Na+] [Anhydrous DHEA-S, sodium dehydroepiandrostenone sulfate]
Median particle size D (v, 0.5) [1]: 3.25 ™

CC(C)CCC[C@@H](C)[C@H]1CC[C@H]2[C@@H]3CC=C4C[C@@H](O)CC[C@]4(C)[C@H]3CC[C@]12C [CH, cholesterol]
Effect of supplement on DHEA-induced growth inhibition (HT-29 SF cells [2]): no such effect | Effect of supplement on DHEA-induced reduction of S phase cells (HT-29 SF cells [3]; 48 hours): very little effect | Effect of supplement on DHEA-induced reduction of S phase cells (HT-29 SF cells [3]; 72 hours): no effect

C[C@]12CC[C@H](O)CC1=CC[C@@H]1[C@@H]2CC[C@]2(C)C(=O)CC[C@@H]12 [DHEA, 3β-hydroxyandrost-5-en-17-one]
Effect on tissue adenosine (in words) (Intracellular adenosine; rat, in vivo): multi-organ depletion of adenosine | Solubility in water (in words) (Solubility of DHEA-S; water): insoluble in water | Cell cycle effect (in words) (HT-29 SF cells [4]): produced a G1 block in HT-29 SF cells in a time- and dose-dependent manner | Inhibition of growth (in words) (HT-29 SF cells [5]): time- and dose-dependent inhibition of growth

C[C@]12CC[C@H](OS(=O)(=O)[O-])CC1=CC[C@@H]1[C@@H]2CC[C@]2(C)C(=O)CC[C@@H]12.[Na+] [DHEA-S dihydrate, sodium dehydroepiandrostenone sulfate]
Impurities ([6]; Bulk): No significant peaks | Water ([6]; Bulk): 8.5 % w/w | Impurities ([6]; Micronized): No significant peaks | Water ([6]; Micronized): 8.4 % w/w | Surface area ([6]; Micronized, five point BET): 4.9 m^2/g

C[C@]12CC[C@H](OS(=O)(=O)[O-])CC1=CC[C@@H]1[C@@H]2CC[C@]2(C)C(=O)CC[C@@H]12.[Na+] [DHEA-S, sodium dehydroepiandrostenone sulfate]
Estimated DHEA-S concentration in solution (Solubility of DHEA-S; 15° C., 20 mM Na+, Ksp 1316 mM^2): 27.5 mM and 10.7 mg/mL | Ksp at 15° C. (Solubility of DHEA-S; interpolated versus reciprocal of absolute temperature): 1316 mM^2 | Appearance of solution on storage [7]: a slight precipitate is observed on the third day | Effect on smooth muscle proliferation without EGF stimulation (FIG. 18) (Human ASM cells): neither IBMX nor DHEA-S alone or in combinations inhibits smooth muscle proliferation

C[C@@](O)(CCO)CC(=O)O [MVA, mevalonic acid]
Effect of supplement on DHEA-induced growth inhibition (HT-29 SF cells [2]): partially overcome | Effect of supplement on DHEA-induced reduction of S phase cells (HT-29 SF cells [3]; 48 hours): partially prevented this effect | Effect of supplement on DHEA-induced reduction of S phase cells (HT-29 SF cells [3]; 72 hours): not after 72 hours

C[C@]12CCC(=O)C=C1CC[C@@H]1[C@@H]2CC[C@@]2(C)[C@H]1CC[C@]2(C)O [Methyltestosterone, methyltestosterone]
Effect on tissue adenosine (in words) (Intracellular adenosine; daily for two weeks): multi-organ depletion of adenosine

CC(C)=CCC/C(C)=C/CC/C(C)=C/CC/C=C(\C)CC/C=C(\C)CCC=C(C)C [SQ, squalene]
Effect of supplement on DHEA-induced growth inhibition (HT-29 SF cells [2]): no such effect

Cn1c(=O)c2[nH]cnc2n(C)c1=O [Theophylline, 3,7-dihydro-1,3-dimethyl-1H-purine-2,6-dione]
Serum concentrations required for optimal effects [8]: 15000 to 20000 ng/mL
